Where “and” joins values, the source holds several entries; their conditions need not be identical. Equal values may be shown once.
System: 324938-238-R-J1-PDC complex spheroids viability
Experiment: Anticancer human tumor 324938-238-R-J1-PDC patient-derived bladder carcinoma cell line growth inhibition [CLK]
Conditions: for viability, T/C: stronger effect = lower value
Source text: A high-throughput screen of multi-cell type tumor spheroids was designed to identify active combinations of […] and targeted small molecules. Complex spheroids include a stromal component modeled by human endothelial cells (HUVEC) and fibroblasts modeled by human mesenchymal stem cells (MSCs). The concentration ranges selected for each drug and investigational agent were based upon clinically achievable concentrations if the clinical Cmax of the agent was known.
Compounds. The drugs and investigational agents: cirtuvivint (SM08502; NSC835563), CC-671 (NSC850746), vemurafenib (NSC761431), tapotoclax (NSC804041), sotorasib (NSC818433), adagrasib (NSC831453), MRTX-1133 (NSC836407), BAY2416964 (NSC825713), copanlisib (NSC816437), inavolisib (NSC800729), abemaciclib (NSC768073), osimertinib (NSC779217), entinostat (NSC756642), eltanexor (KPT-8602, NSC794443), venetoclax (NSC766270), ceralasertib (NSC777638), bortezomib (NSC756655), olaparib (NSC753686), talazoparib (NSC767125), alisertib (NSC759677), peposertib (NSC802822), gemcitabine (NSC613327), 5-fluorouracil (NSC19893), SN-38 (NSC673596), oxaliplatin (NSC266046), paclitaxel (NSC125973), and doxorubicin (NSC123127), were obtained from the National Cancer Institute (NCI) Developmental Therapeutics Program Chemical Repository. The FDA-approved anticancer drug set is available from the Developmental Therapeutics Program at https://dtp.cancer.gov/organization/dscb/obtaining/available plates.htm. […] The stock solutions were prepared in dimethyl sulfoxide (DMSO, Sigma-Aldrich, St. Louis, MO, cat. D2650), except for the platinum complexes which were prepared in saline (Quality Biological, Gaithersburg, MD, cat. 114-055-101), at 800-fold the tested concentration and stored at -70 degrees C prior to their use. All drugs and investigational agents were tested over a range starting from a high concentration at or near the clinical Cmax and decreasing in half-log increments. If the clinical Cmax for an agent had not been determined, the highest concentration tested was 10 microM.
Cell Culture. All cells were maintained in an incubator at 37 degrees C and 5% CO2 with 95% humidity. The PDC lines were cultured according to standard operating procedures established by the NCI PDMR. Briefly, all PDCs were thawed and cultured in Matrigel-coated flasks prepared with a working solution of 1X Ham's F-12 nutrient mix, without supplementation (Invitrogen, Waltham, MA, cat. 11765054), 100 U/mL penicillin-streptomycin (Invitrogen, cat. 15140122), and 2.5% Matrigel (Corning Inc., Corning, NY, cat. 354248) for the first three passages. The 947758-054-R-J2-PDC line was cultured in 6B/Colon 1A media, which includes advanced DMEM/F-12 (Thermo Fisher Scientific, cat. 12634028), 10 mM HEPES (Thermo Fisher Scientific, cat. 15630080), 1X GlutaMAX supplement (Thermo Fisher Scientific, cat. 35050061), 0.1 mg/mL primocin (InvivoGen, cat. ant-pm-2), 10% defined fetal bovine serum, heat inactivated (HyClone Laboratories Inc., cat. SH30070.03HI), 1.25 mM N-Acetyl-L-cysteine (Sigma-Aldrich, cat. A9165), 10 mM nicotinamide (Sigma-Aldrich, cat. N0636), 1X B-27 supplement (Thermo Fisher Scientific, cat. 17504044), 1X N-2 supplement (Thermo Fisher Scientific, cat. 17502048), and 10 microM Y-27632 dihydrochloride (Tocris Bioscience, cat. 1254). The 876862-298-R-J1-PDC was cultured in 6E media, which includes all 6B/Colon 1A media components plus 50% L-WRN conditioned media (ATCC, cat. CRL-3276), 50 ng/mL recombinant human EGF recombinant protein (hEGF; Thermo Fisher Scientific, cat. PHG0311), 10 ng/mL recombinant human fibroblast growth factor 10 (hGFG-10; PeproTech, cat. 100-26), 1 ng/mL recombinant human fibroblast growth factor 2 (hFGF-2; PeproTech, cat. 100-18B), and 1 µM prostaglandin E2 (PGE2; Tocris, cat. 2296). The 227483-062-R1-J1-PDC line was cultured in Panc media, containing all 6E components except hFGF-2, with the addition of 500 nM SB-431542 (Selleckchem, cat. S1067) and 10 nM gastrin (Tocris, cat. 3006). […]

[1] = curve of first compound, second compound 0.0316 µM
[2] = curve of first compound, second compound 0.1 µM
[3] = curve of first compound, second compound 0.316 µM
[4] = curve of first compound, second compound 1 µM
[5] = curve of first compound, second compound 3.16 µM
[6] = curve of first compound, second compound 10 µM
[7] = second compound 0.0316 µM, first compound 0.0316 µM
[8] = second compound 0.0316 µM, first compound 0.1 µM
[9] = second compound 0.0316 µM, first compound 0.316 µM
[10] = second compound 0.0316 µM, first compound 1 µM
[11] = second compound 0.1 µM, first compound 0.0316 µM
[12] = second compound 0.1 µM, first compound 0.1 µM
[13] = second compound 0.1 µM, first compound 0.316 µM
[14] = second compound 0.1 µM, first compound 1 µM
[15] = second compound 0.316 µM, first compound 0.0316 µM
[16] = second compound 0.316 µM, first compound 0.1 µM
[17] = second compound 0.316 µM, first compound 0.316 µM
[18] = second compound 0.316 µM, first compound 1 µM
[19] = second compound 1 µM, first compound 0.0316 µM
[20] = second compound 1 µM, first compound 0.1 µM
[21] = second compound 1 µM, first compound 0.316 µM
[22] = second compound 1 µM, first compound 1 µM
[23] = second compound 3.16 µM, first compound 0.0316 µM
[24] = second compound 3.16 µM, first compound 0.1 µM
[25] = second compound 3.16 µM, first compound 0.316 µM
[26] = second compound 3.16 µM, first compound 1 µM
[27] = second compound 10 µM, first compound 0.0316 µM
[28] = second compound 10 µM, first compound 0.1 µM
[29] = second compound 10 µM, first compound 0.316 µM
[30] = second compound 10 µM, first compound 1 µM
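Also: viability read after seven days of drug exposure.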
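For viability, T/C in this document: 100% = DMSO vehicle control wells.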

With CCc1c2c(nc3ccc(O)cc13)-c1cc3c(c(=O)n1C2)COC(=O)[C@]3(O)CC + CNC(=O)c1ccc(Nc2nc(OC3CCCC3)c3c(-c4ccc5nc(C)oc5c4)c[nH]c3n2)c(OC)c1 the IC50 [1] was < 3.16 nM, the IC50 [2] was < 3.16 nM and the IC50 [3] was < 3.16 nM. The IC50 [4] was < 3.16 nM, the IC50 [5] was < 3.16 nM and the IC50 [6] was < 3.16 nM. It also gave a viability, T/C (second compound 0.0316 µM, first compound 0.00316 µM) of 17.9%, a viability, T/C (second compound 0.0316 µM, first compound 0.01 µM) of 12.3% and a viability, T/C [7] of 12.7%. The viability, T/C [8] was 13%, the viability, T/C [9] was 11.2% and the viability, T/C [10] was 2.24%. It also gave a viability, T/C (second compound 0.1 µM, first compound 0.00316 µM) of 17.9%, a viability, T/C (second compound 0.1 µM, first compound 0.01 µM) of 13.3% and a viability, T/C [11] of 12.5%. For the same compound, the viability, T/C [12] was 12.7%, the viability, T/C [13] was 11.3% and the viability, T/C [14] was 2.05%. The viability, T/C (second compound 0.316 µM, first compound 0.00316 µM) was 14.6%, the viability, T/C (second compound 0.316 µM, first compound 0.01 µM) was 11.1% and the viability, T/C [15] was 11.8%. For the same compound, the viability, T/C [16] was 12.1%, the viability, T/C [17] was 9.98% and the viability, T/C [18] was 1.99%. The viability, T/C (second compound 1 µM, first compound 0.00316 µM) was 12.2%, the viability, T/C (second compound 1 µM, first compound 0.01 µM) was 9.22% and the viability, T/C [19] was 10.1%. It also gave a viability, T/C [20] of 8.69%, a viability, T/C [21] of 8.5% and a viability, T/C [22] of 1.33%. For the same compound, the viability, T/C (second compound 3.16 µM, first compound 0.00316 µM) was 11.4%, the viability, T/C (second compound 3.16 µM, first compound 0.01 µM) was 9.74% and the viability, T/C [23] was 8.18%. It also gave a viability, T/C [24] of 8%, a viability, T/C [25] of 6.57% and a viability, T/C [26] of 1.29%. For the same compound, the viability, T/C (second compound 10 µM, first compound 0.00316 µM) was 10.2%, the viability, T/C (second compound 10 µM, first compound 0.01 µM) was 10.8% and the viability, T/C [27] was 8.22%. For the same compound, the viability, T/C [28] was 8.16%, the viability, T/C [29] was 6.28% and the viability, T/C [30] was 1.01%.

In the case of Nc1ccn(C2OC(CO)C(O)C2(F)F)c(=O)n1 (stereo unspecified) + CN1CCN(c2cc(C(=O)Nc3cc4cc(-c5cnn(C)c5)ccc4cn3)ccn2)CC1, the IC50 [1] is reported as < 31.6 nM, the IC50 [2] is reported as < 31.6 nM and the IC50 [3] is reported as < 31.6 nM. For the same compound, the IC50 [4] was < 31.6 nM, the IC50 [5] was < 31.6 nM and the IC50 [6] was < 31.6 nM. For the same compound, the viability, T/C [7] was 31.4%, the viability, T/C [8] was 16.4% and the viability, T/C [9] was 11.3%. It also gave a viability, T/C [10] of 11.3%, a viability, T/C (second compound 0.0316 µM, first compound 3.16 µM) of 6.96% and a viability, T/C (second compound 0.0316 µM, first compound 10 µM) of 6.17%. For the same compound, the viability, T/C [11] was 25.3%, the viability, T/C [12] was 14.2% and the viability, T/C [13] was 11.5%. The viability, T/C [14] was 10.8%, the viability, T/C (second compound 0.1 µM, first compound 3.16 µM) was 5.43% and the viability, T/C (second compound 0.1 µM, first compound 10 µM) was 4.89%. It also gave a viability, T/C [15] of 18.9%, a viability, T/C [16] of 12.7% and a viability, T/C [17] of 10.2%. The viability, T/C [18] was 8.86%, the viability, T/C (second compound 0.316 µM, first compound 3.16 µM) was 5.88% and the viability, T/C (second compound 0.316 µM, first compound 10 µM) was 1.97%. It also gave a viability, T/C [19] of 0.83%, a viability, T/C [20] of 0.6% and a viability, T/C [21] of 0.57%. The viability, T/C [22] was 0.45%, the viability, T/C (second compound 1 µM, first compound 3.16 µM) was 0.37% and the viability, T/C (second compound 1 µM, first compound 10 µM) was 0.22%. The viability, T/C [23] was 0.13%, the viability, T/C [24] was 0.16% and the viability, T/C [25] was 0.15%. For the same compound, the viability, T/C [26] was 0.12%, the viability, T/C (second compound 3.16 µM, first compound 3.16 µM) was 0.14% and the viability, T/C (second compound 3.16 µM, first compound 10 µM) was 0.19%. The viability, T/C [27] was 0.11%, the viability, T/C [28] was 0.12% and the viability, T/C [29] was 0.19%. For the same compound, the viability, T/C [30] was 0.12%, the viability, T/C (second compound 10 µM, first compound 3.16 µM) was 0.17% and the viability, T/C (second compound 10 µM, first compound 10 µM) was 0.16%.

With CC(Nc1ccc2c(c1)OCCn1cc(N3C(=O)OCC3C(F)F)nc1-2)C(N)=O (stereo unspecified) the viability, T/C (compound 0.0316 µM) was 67.9% and 69%, the viability, T/C (compound 0.1 µM) was 49.2% and 55% and the viability, T/C (compound 0.316 µM) was 32% and 34.8%. For the same compound, the viability, T/C (compound 1 µM) was 25% and 29.9%, the viability, T/C (compound 3.16 µM) was 20.4% and 24.6% and the viability, T/C (compound 10 µM) was 10.8% and 12.4%. The IC50 (curve of compound) was 91 nM and 128 nM.
